Test results as given in publication PMC10683472, “Deep Learning-Driven Library Design for the De Novo Discovery of Bioactive Thiopeptides” (ACS Central Science, 2023).
Read-outs that look alike come from different tables or passages of the source. *1 amine or outer side, *2 acyl side, *3 side chain or, on linkers, in order; H or OH if unused. Where a SMILES comes first, the peptide text is derived from it. Where no end group is shown, it is not given here. [ ]: non-standard residue; d: D form. hGln = L-homoglutamine, NC(=O)CCC[C@H](N[*:1])C(=O)[*:2]; pyridine‑bisazole = not defined here; Nle = CCCC[C@H](N)C(=O)O; Dhb = C/C=C(\N)C(=O)O

How the values were obtained:
[1] = biological target: T1, Biotinylated IRAK4 (kinase domain, amino acids 1-460; NP_057207.2) (Homo sapiens, UniProt Q9NWZ3); assay: Surface plasmon resonance binding to IRAK4
T1 construct: acids 1-460; NP_057207.2) was purchased from Carna Biosciences; purchased Carna Biosciences (Kobe, Japan)
T1 sequence (Q9NWZ3 1-460): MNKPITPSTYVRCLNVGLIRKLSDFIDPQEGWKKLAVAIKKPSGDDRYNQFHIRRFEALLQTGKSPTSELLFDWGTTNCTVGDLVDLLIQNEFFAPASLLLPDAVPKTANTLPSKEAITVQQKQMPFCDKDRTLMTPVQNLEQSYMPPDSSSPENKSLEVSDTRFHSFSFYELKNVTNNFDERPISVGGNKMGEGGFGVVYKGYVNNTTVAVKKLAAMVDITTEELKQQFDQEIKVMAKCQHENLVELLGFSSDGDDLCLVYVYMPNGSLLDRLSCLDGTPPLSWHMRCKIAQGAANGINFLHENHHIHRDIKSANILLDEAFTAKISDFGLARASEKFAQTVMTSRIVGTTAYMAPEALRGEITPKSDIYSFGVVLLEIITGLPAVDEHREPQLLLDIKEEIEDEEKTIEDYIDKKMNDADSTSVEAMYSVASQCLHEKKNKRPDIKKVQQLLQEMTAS
Source text: Reagents were purchased from Nacalai Tesque, Wako Pure Chemical Industries, Sigma-Aldrich Japan, or TCI Chemicals and were used as received. Biotinylated IRAK4 (kinase domain, amino acids 1-460; NP_057207.2) was purchased from Carna Biosciences (Kobe, Japan). Recombinant human TLR10 Fc Chimera protein (extracellular domain, amino acid 20-576; Q9BXR5) was purchased from R&D system (#6619-TR-050). Anti-HA magnetic beads were from Pierce Thermo Fisher Scientific (#88836). Magnetic beads with immobilized streptavidin were from Invitrogen (Dynabeads Streptavidin C1, # 65001). Magnetic beads with immobilized streptavidin were from Invitrogen (Dynabeads Streptavidin M280, #11206D).
Protein purification and synthesis of Streptomyces lactacystinaeus tRNAGlu were done as previously described.1–3 Protein concentration measurements were carried out on a Nanodrop 2000c spectrophotometer (Thermo Scientific) equipped with a 5 mm pathlength quartz cuvette using extinction coefficient values calculated with ExPASy ProtParam tool (https://web.expasy.org/protparam).
Biochemical measurements (sections 2.10 – 2.14) were performed in triplicate or more. Most experiments were reproduced to an analogous outcome at least once. In the cases where the determination of biophysical parameters involved cell assay (CP50 and IC50), reported are standard errors of the fit; otherwise, error bars are standard deviations.
RNA extracted from the gel with 300 mM NaCl were collected by ethanol precipitation followed by centrifugation (15300 g for 15 min) and dissolved in water for storage. tRNAini was aminoacylated with eFx using biotin-Phe-CME as a substrate. tRNAini (25 µM) and eFx (25 µM) were incubated with biotin-Phe-CME (5 mM) in HEPES-KOH buffer (50 mM; pH 7.5) containing 600 mM MgCl2 on ice for 2 h. The reactions were stopped with the addition of 300 mM NaOAc (pH 5.2), and precipitated with ethanol. Precipitated RNA was recovered by centrifugation (15300 g for 15 min). The pellet was washed with 70% ethanol in water (v/v) containing 100 mM NaOAc (pH 5.2) and used in translation.
2.10. Surface plasmon resonance
Binding affinities between the thiopeptides and IRAK4/TLR10 were measured with a Biacore 8K instrument (GE Healthcare) at 25 °C. The assay buffer for IRAK4 binding analysis contained 50 mM Tris (pH 7.5), 150 mM NaCl, 10 mM MgCl2, 0.05% (v/v) tween-20 and 0.1% (v/v) DMSO. The […]
Biotinylated IRAK4 was immobilized on a Biacore CAP chip (GE Healthcare) to a surface density […]
step was allowed to proceed for 480 s. Kinetic parameters and affinities of the interaction were […]
provided by the manufacturer. The interaction sensorgrams were measured as single -cycle […]
Kinetic parameters and affinities of the
Evaluation Software v.3.0 (GE Healthcare).

Serum stability assay = format: in vitro ADME; conditions: human serum, 37 °C, LC/MS; for half-life at 10 µM: pH 7.6, read-out: serum stability τ1/2 (converted)
Procedure: Next, we tested the metabolic stability of the discovered thiopeptides. The compounds were incubated in human serum at 37 °C in the presence of an internal control, and the amounts of the remaining analytes were quantified by LC/MS (Figures S27 and 28). […] At the other extreme, IR11 rapidly degraded in human serum with τ1/2 = 0.5 h. […]
Kinetic parameters and affinities of the […]
2.12. Thiopeptide metabolic stability experiments
The mixtures were stirred
well and transferred to a 37 °C thermostat. […]

IRAK4 [2] = biological target: T2, IRAK4 (Homo sapiens, UniProt Q9NWZ3); assay: Single-round mRNA display binding assay (qPCR), IRAK4; set-up: acids 1-460; NP_057207.2) was purchased from Carna Biosciences; purchased Carna Biosciences (Kobe, Japan); conditions: ratio of cDNA recoveries (qPCR), IRAK4 pulldown over beads only, single-round selection
T2 sequence (Q9NWZ3 1-460): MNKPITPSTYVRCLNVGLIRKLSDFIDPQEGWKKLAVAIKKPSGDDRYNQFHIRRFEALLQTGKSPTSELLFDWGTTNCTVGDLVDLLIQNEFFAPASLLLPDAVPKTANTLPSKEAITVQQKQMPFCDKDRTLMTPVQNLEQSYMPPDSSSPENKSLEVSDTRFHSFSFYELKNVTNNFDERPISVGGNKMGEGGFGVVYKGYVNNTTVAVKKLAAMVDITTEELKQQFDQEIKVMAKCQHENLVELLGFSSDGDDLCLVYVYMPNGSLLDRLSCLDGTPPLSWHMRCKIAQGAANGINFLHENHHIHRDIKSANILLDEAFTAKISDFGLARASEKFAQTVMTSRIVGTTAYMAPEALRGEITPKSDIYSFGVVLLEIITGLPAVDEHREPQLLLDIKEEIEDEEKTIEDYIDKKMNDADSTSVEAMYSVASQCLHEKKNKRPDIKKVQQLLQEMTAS

IRAK4 [3] = biological target: T2, IRAK4; assay: mRNA display affinity selection against IRAK4, NGS abundance; format: binding; set-up: acids 1-460; NP_057207.2) was purchased from Carna Biosciences; purchased Carna Biosciences (Kobe, Japan); conditions: IRAK4 selection, NGS abundance rank
THP1-XBlue cells = assay: Cell viability with Cell Counting Kit-8; conditions: at the tested concentrations
Procedure: 2.13. NF-kB signaling pathway inhibition assay
THP-1 Cellular Assay. THP1-XBlue cells containing an NF-kB-inducible secreted embryonic alkaline phosphatase (SEAP) reporter gene (InvivoGen) were seeded to 96-well assay plates (10^5 cells/well) with RPMI 1640 culture medium containing 10% fetal calf serum. The cells were pre-treated with various concentration of analyte thiopeptide inhibitor in 0.1% DMSO and incubated at 37 °C for 6 h. LPS-EK (30 ng/mL, InvivoGen) was subsequently added to activate the NF-kB signalling for 20 h. To quantitate SEAP activity, supernatants were harvested (300 g, 5min) and mixed with Quanti-Blue (InvivoGen) detection reagent following the manufacturer’s instructions.
Cells were assayed with cell counting kit-8 in parallel to rule out potential cytotoxicity. The plates

IRAK4 [4] = biological target: T2, IRAK4; assay: biochemical
[5] = biological target: T3, interleukin-1 receptor-associated kinase 4 (UniProt Q9NWZ3 1-460); assay: SPR; surface plasmon resonance of synthetic thiopeptides on their target protein; conditions in S.I. 2.10 (not shown); conditions: both partners purified
T3 construct: interleukin-1 receptor-associated kinase 4 (IRAK4); also called IRAK4; IRAK4 kinase
T3 sequence (looked up): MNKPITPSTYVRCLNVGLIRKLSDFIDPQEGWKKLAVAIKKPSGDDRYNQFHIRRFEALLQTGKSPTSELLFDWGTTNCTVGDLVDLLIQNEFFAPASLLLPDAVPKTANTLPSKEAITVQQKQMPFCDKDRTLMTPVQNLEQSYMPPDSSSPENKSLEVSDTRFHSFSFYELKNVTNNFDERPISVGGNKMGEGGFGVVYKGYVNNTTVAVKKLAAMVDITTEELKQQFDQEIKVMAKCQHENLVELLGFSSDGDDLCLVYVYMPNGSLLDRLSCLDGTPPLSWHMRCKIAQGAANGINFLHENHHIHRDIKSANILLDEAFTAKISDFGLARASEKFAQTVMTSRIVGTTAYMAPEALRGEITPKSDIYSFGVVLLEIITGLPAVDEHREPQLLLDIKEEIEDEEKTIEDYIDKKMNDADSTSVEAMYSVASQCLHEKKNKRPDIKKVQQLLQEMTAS

[6] = biological target: T4, interleukin-1 receptor-associated kinase 4 (UniProt Q9NWZ3 1-460); assay: cell-based or functional assay
T4 sequence (looked up): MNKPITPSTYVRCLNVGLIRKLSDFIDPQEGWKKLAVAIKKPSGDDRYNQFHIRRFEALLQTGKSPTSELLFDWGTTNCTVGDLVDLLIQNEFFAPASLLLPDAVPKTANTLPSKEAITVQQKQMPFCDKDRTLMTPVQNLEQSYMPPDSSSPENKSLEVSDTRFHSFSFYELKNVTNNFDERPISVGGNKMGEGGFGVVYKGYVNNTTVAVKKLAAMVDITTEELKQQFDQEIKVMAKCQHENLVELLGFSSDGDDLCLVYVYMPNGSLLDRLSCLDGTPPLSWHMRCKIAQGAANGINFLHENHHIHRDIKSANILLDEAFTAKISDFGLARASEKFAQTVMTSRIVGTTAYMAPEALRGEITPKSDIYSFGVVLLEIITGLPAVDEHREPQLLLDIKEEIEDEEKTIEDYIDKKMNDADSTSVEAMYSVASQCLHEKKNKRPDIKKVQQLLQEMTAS

## C=C1NC(=O)[C@H](CCCCN)NC(=O)[C@H](Cc2c[nH]c3ccccc23)NC(=O)[C@H]([C@@H](C)O)NC(=O)[C@H](CCCNC(=N)N)NC(=O)[C@H](CCCNC(=N)N)NC(=O)[C@H](CCCCN)NC(=O)[C@H](Cc2c[nH]c3ccccc23)NC(=O)[C@H](CCCC(N)=O)NC(=O)[C@H](CC(C)C)NC(=O)[C@H]([C@@H](C)O)NC(=O)[C@H](Cc2c[nH]c3ccccc23)NC(=O)c2ccc(-c3nc(C(=O)OC)cs3)nc2-c2csc1n2 [IR8] (HELM PEPTIDE1{W.T.L.[O=C([C@H](CCCC(=O)[*:3])N[*:1])[*:2]].W.K.R.R.T.W.K}|PEPTIDE2{[am]}|CHEM1{[C=C(N[*:2])c1nc(-c2nc(-c3nc(C(=O)OC)cs3)ccc2C(=O)[*:1])cs1]}$PEPTIDE1,PEPTIDE2,4:R3-1:R1|PEPTIDE1,CHEM1,1:R1-1:R1|PEPTIDE1,CHEM1,11:R2-1:R2$$$V2.0; bridges inferred)
[1]
  koff: 0.027 s⁻¹
  kon: 1.24e+06 M⁻¹ s⁻¹
Serum stability assay
  half-life at 10 µM: 42 ± 4.8 min
IRAK4 [2]
  display P/N ratio: 152
IRAK4 [3]
  rank in pulldown(+): 9
  rank in pulldown(–): 9

## CC[C@@H]1[C@H](F)C(=O)N[C@@H]1COc1nccc2cc(C(N)=O)c(OC)cc12 [PF-06650833, 1-{[(2S,3S,4S)-3-Ethyl-4-fluoro-5-oxopyrrolidin-2-yl]methoxy}-7-methoxyisoquinoline-6-carboxamide, reference compound]
THP1-XBlue cells
  cytotoxicity (Cell Counting Kit-8): not cytotoxic

## C=C1NC(=O)[C@H](Cc2c[nH]cn2)NC(=O)[C@@H]2CCCN2C(=O)[C@H](CCCNC(=N)N)NC(=O)[C@H](CCCNC(=N)N)NC(=O)[C@H](CCCNC(=N)N)NC(=O)[C@H](C)NC(=O)[C@H](Cc2c[nH]c3ccccc23)NC(=O)[C@H](Cc2ccc(O)cc2)NC(=O)[C@H](CC(C)C)NC(=O)[C@H](CO)NC(=O)[C@H](CCSC)NC(=O)[C@H](C)NC(=O)[C@H](Cc2c[nH]c3ccccc23)NC(=O)c2ccc(-c3nc(C(=O)OC)cs3)nc2-c2csc1n2 [IR11] (HELM PEPTIDE1{W.A.M.S.L.Y.W.A.R.R.R.P.H}|CHEM1{[C=C(N[*:2])c1nc(-c2nc(-c3nc(C(=O)OC)cs3)ccc2C(=O)[*:1])cs1]}$PEPTIDE1,CHEM1,1:R1-1:R1|PEPTIDE1,CHEM1,13:R2-1:R2$$$V2.0)
[1]; SPR, IRAK4, read-out: koff
  koff: 0.0021 s⁻¹
[1]; SPR, IRAK4, read-out: kon
  kon: 783 M⁻¹ s⁻¹
Serum stability assay
  serum stability τ1/2: 0.5 h
  half-life at 10 µM: 30 ± 2.4 min
IRAK4 [4]
  IC50: 4100 ± 300 nM
IRAK4 [2]
  display P/N ratio: 1072
IRAK4 [3]
  rank in pulldown(+): 30
  rank in pulldown(–): 15

B1: thiopeptide IR8 (synthetic) (peptide)
chain: SWTL[hGln]WKRRTWKSCSC
modifications: bridge (positions not given here) via pyridine‑bisazole; reading uncertain; also: macrocycle closed through a pyridine-bisazole moiety, oxazole to thiazole change
[5]
  Kd: 22 nM

B2: thiopeptide IR1 (synthetic) (peptide)
chain: SWS[Nle]KRQFITWHW[Dhb]SCSC
modifications: bridge (positions not given here) via pyridine‑bisazole; not fully specified; reading uncertain; also: dehydroamino acids, macrocycle with pyridine-bisazole moiety, oxazole to thiazole mutation
[6]
  IC50, lipopolysaccharide-induced NF-κB signaling (secreted alkaline phosphatase reporter) in THP1-XBlue monocytes: 7000 nM

B3: thiopeptide IR11 (synthetic) (peptide)
chain: SWAMSLYWARRRPHSCSC
modifications: bridge (positions not given here) via pyridine‑bisazole; reading uncertain; also: macrocycle closed through pyridine-bisazole moiety, oxazole to thiazole change
[5]
  Kd: 2700 nM

B4: thiopeptide IR1 (synthetic) (peptide)
chain: SWS[Nle]KRQFITWHW[Dhb]SCSC
modifications: bridge (positions not given here) via pyridine‑bisazole; reading uncertain; also: macrocycle closed through pyridine-bisazole moiety, oxazole to thiazole change
[5]
  Kd: 230 nM
